Laboratory results: PMC12785453, “Oral Fluid Concentrations and Pharmacological Effects of Clephedrone and Methylone in Humans” (International Journal of Molecular Sciences, 2025)

Key:
[1] = tested on: healthy volunteers; assay: Subjective effects, visual analog scales (VAS), clephedrone study; type: in vivo, humans
Description: (§1) The study evaluating the acute effects of clephedrone was designed as a non-controlled, prospective, observational, and naturalistic study. The procedures and evaluations included in this study have been described in previous studies evaluating other synthetic cathinones (mephedrone, methylone, alpha-PVP, NEP, HEXEN), phenethylamines (2C-B and 2C-E), or synthetic cannabinoids (JWH-122, JWH-210, UR-144).
(§2) This study consisted of one experimental session in which participants (N = 8; 6 women, 2 men) selected their oral dose of clephedrone based on their drug use experience and preferences. According to their dose selection, 3 women and 1 man ingested 100 mg of clephedrone, while the remaining 3 women and 1 man opted for a higher dose of 150 mg. […] Participants were recruited by word of mouth by the harm reduction organization Energy Control in Barcelona (Associació Benestar i Desenvolupament, ABD).
(§3) Subjective effects were evaluated with visual analog scales (VAS), the short form of the Addiction Research Center Inventory (ARCI), and the Evaluation of Subjective Effects of Substances with Abuse Potential questionnaire (VESSPA-SSE). In addition, the Sensitivity to Drug Reinforcement Questionnaire (SDRQ) and a pharmacological identification class questionnaire were used in the controlled study administering methylone.
VAS encompassed several adjectives that participants had to rate from “not at all” (0 mm) to “extremely” (100 mm) according to their sensations. This scale included 28 items: intensity, stimulated, high, good effects, bad effects, liking, changes in distances, changes in colors, changes in shapes, changes in lights, hallucinations (seeing lights or spots), hallucinations (seeing things, animals, insects, or people), changes in hearing, hallucinations (hearing sounds or voices), drowsiness, concentration, dizziness, confusion, different or changed body feeling, unreal body feeling, different surroundings, unreal surroundings, open, trust, feeling close to others, I want to be with other people, I want to hug someone, sexual desire, and sexual arousal.
(§4) Participants included in the naturalistic clephedrone study completed VAS at baseline, 0.50, 1, 1.5, 2, 3, 4, and 5 h, and ARCI and VESSPA at baseline, 1, 2, 3, 4, and 5 h after self-administering clephedrone. In the controlled study, VAS was performed at baseline and 0.25, 0.50, 0.75, 1, 1.5, 2, 3, 4, 6, 8, 10, and 24 h, and ARCI and VESSPA at baseline and 1, 2, 3, 4, 6, 8, and 10 h after administering methylone. Participants completed SDRQ and VAS sexual desire and arousal at baseline, 1 and 10 h, and the pharmacological class identification questionnaire at 8 h.
(§5) For statistical analysis, values of physiological (SBP, DBP, HR, and T) and subjective effects (VAS, ARCI, and VESSPA-SSE) were baseline–adjusted. Maximum effects (Emax) and the time needed to reach maximum effects (Tmax) were determined, and the area under the curve up to 5 h (AUC0–5h) for clephedrone and up to 6 h (AUC0–6h) for methylone was calculated using the trapezoidal rule. Emax and AUC values are presented as mean ± standard deviation, whereas Tmax is presented in median (range).
(§6) To find possible significant changes through the time course compared to baseline, a Dunnett multiple comparison test was carried out to compare each time point with baseline in both drug conditions. For clephedrone the comparisons were 0–0.5 h, 0–1 h, 0–1.5 h, 0–2 h, 0–3 h, 0–4 h and 0–5 h, and for methylone this analysis included 0–0.25 h, 0–0.5 h, 0–0.75 h, 0–1 h, 0–1.5 h, 0–2 h, 0–3 h, 0–4 h and 0–6 h. Given their different study designs, no comparative analysis between the time courses of both synthetic cathinones was conducted.

[2] = tested on: healthy volunteers; assay: Subjective effects, VESSPA-SSE, clephedrone study; type: in vivo, humans; settings: 100 or 150 mg oral, n=8
Description: as §1, §2, §3
The VESSPA-SSE questionnaire, used to evaluate the subjective effects of stimulant drugs, The questionnaire includes 36-items and consists of six subscales that measure sedation (S), psychosomatic anxiety (ANX), changes in perception (CP), pleasure and sociability (SOC), activity and energy (ACT), and psychotic symptoms (PS).
as §4, §5, §6

[3] = 100 or 150 mg oral, n=8, listed as clephedrone
[4] = AUC0–5h, 100 or 150 mg oral, n=8

## CNC(C)C(=O)c1ccc(Cl)cc1 (stereo not drawn) [Clephedrone, 4-chloromethcathinone]
[1]; 100 or 150 mg oral
  Hallucinogenic effects: did not evidence any hallucinogenic effects
  Tmax of the high-scoring VAS subjective effects: 3 h
[1]; 100 or 150 mg oral, n=8
  VAS Bad effects Emax: 0.38 ± 0.74 mm
  VAS Changes in colors Emax: 1.13 ± 2.80 mm
  VAS Changes in colors Tmax: 0.0 (0.0–3.0) h
  VAS Changes in distances Emax: 1.88 ± 4.55 mm
  VAS Changes in distances Tmax: 0.0 (0.0–2.0) h
  VAS Changes in hearing Emax: 8.75 ± 16.24 mm
  VAS Changes in hearing Tmax: 0.0 (0.0–4.0) h
  VAS Changes in lights Emax: 4.75 ± 9.79 mm
  VAS Changes in lights Tmax: 0.0 (0.0–4.0) h
  VAS Concentration Emax: 22.13 ± 16.65 mm
  VAS Confusion Emax: 3.00 ± 3.82 mm
  VAS Different or changed body feeling Emax: 39.63 ± 22.15 mm
  VAS Different surroundings Emax: 13.75 ± 23.50 mm
  VAS Dizziness Emax: 1.13 ± 1.81 mm
  VAS Drowsiness Emax: 14.25 ± 22.86 mm
  VAS Feeling close to others Emax: 53.38 ± 13.79 mm
  VAS Good effects Emax: 58.50 ± 20.46 mm
  VAS High Emax: 54.25 ± 20.19 mm
  VAS I want to be with other people Emax: 34.63 ± 28.16 mm
  VAS I want to hug someone Emax: 37.63 ± 28.01 mm
  VAS Intensity Emax: 49.13 ± 17.18 mm
  VAS Liking Emax: 59.00 ± 18.56 mm
  VAS Open Emax: 49.25 ± 18.78 mm
  VAS Sexual arousal Emax: 20.13 ± 18.70 mm
  VAS Sexual desire Emax: 20.63 ± 19.60 mm
  VAS Stimulated Emax: 48.75 ± 14.47 mm
  VAS Trust Emax: 53.75 ± 20.62 mm
  VAS Unreal body feeling Emax: 2.13 ± 4.16 mm
  VAS Unreal surroundings Emax: 1.50 ± 4.24 mm
[1]; [3]
  VAS Concentration Emax: exceeding 20 mm
  VAS Different or changed body feeling Emax: > 30 mm
  VAS Feeling close to others Emax: exceeding 40 mm
  VAS Good effects Emax: exceeding 40 mm
  VAS High Emax: exceeding 40 mm
  VAS I want to be with other people Emax: > 30 mm
  VAS I want to hug someone Emax: > 30 mm
  VAS Intensity Emax: exceeding 40 mm
  VAS Liking Emax: exceeding 40 mm
  VAS Open Emax: exceeding 40 mm
  VAS Sexual arousal Emax: exceeding 20 mm
  VAS Sexual desire Emax: exceeding 20 mm
  VAS Stimulated Emax: exceeding 40 mm
  VAS Trust Emax: exceeding 40 mm
[1]; [4]
  VAS Bad effects AUC0-5/6 h: 0.38 ± 0.74 mm·h
  VAS Changes in colors AUC0-5/6 h: 1.75 ± 4.75 mm·h
  VAS Changes in distances AUC0-5/6 h: 1.53 ± 3.76 mm·h
  VAS Changes in hearing AUC0-5/6 h: 12.44 ± 23.03 mm·h
  VAS Changes in lights AUC0-5/6 h: 6.41 ± 14.74 mm·h
  VAS Concentration AUC0-5/6 h: 45.34 ± 33.03 mm·h
  VAS Confusion AUC0-5/6 h: 3.72 ± 5.72 mm·h
  VAS Different or changed body feeling AUC0-5/6 h: 87.38 ± 52.74 mm·h
  VAS Different surroundings AUC0-5/6 h: 25.56 ± 52.75 mm·h
  VAS Dizziness AUC0-5/6 h: 0.97 ± 1.49 mm·h
  VAS Drowsiness AUC0-5/6 h: 13.25 ± 20.39 mm·h
  VAS Feeling close to others AUC0-5/6 h: 116.56 ± 42.59 mm·h
  VAS Good effects AUC0-5/6 h: 129.66 ± 50.22 mm·h
  VAS High AUC0-5/6 h: 118.63 ± 44.24 mm·h
  VAS I want to be with other people AUC0-5/6 h: 62.94 ± 49.65 mm·h
  VAS I want to hug someone AUC0-5/6 h: 80.38 ± 74.45 mm·h
  VAS Intensity AUC0-5/6 h: 112.03 ± 34.05 mm·h
  VAS Liking AUC0-5/6 h: 134.09 ± 48.13 mm·h
  VAS Open AUC0-5/6 h: 112.56 ± 51.16 mm·h
  VAS Sexual arousal AUC0-5/6 h: 44.44 ± 49.02 mm·h
  VAS Sexual desire AUC0-5/6 h: 44.69 ± 48.58 mm·h
  VAS Stimulated AUC0-5/6 h: 104.81 ± 29.68 mm·h
  VAS Trust AUC0-5/6 h: 126.91 ± 60.79 mm·h
  VAS Unreal body feeling AUC0-5/6 h: 3.13 ± 6.75 mm·h
  VAS Unreal surroundings AUC0-5/6 h: 1.50 ± 4.24 mm·h
[1]; oral
  Time of peak pharmacological effects: 3 h
[2]
  VESSPA ANX (psychosomatic anxiety) Emax: 1.33 ± 0.45 points
  VESSPA CP (changes in perception) Emax: 0.02 ± 0.06 points
  VESSPA CP (changes in perception) Tmax: 0.0 (0.0–1.0) h
  VESSPA S (sedation) Emax: 0.90 ± 0.73 points
  VESSPA SOC (pleasure and sociability) Emax: 2.85 ± 0.47 points
  VESSPA-ACT (activity and energy) Emax: 2.52 ± 0.46 points
  VESSPA-PS (psychotic symptoms) Emax: 0.38 ± 0.50 points
[2]; AUC0–5h
  VESSPA ANX (psychosomatic anxiety) AUC0-5/6 h: 3.01 ± 0.95 points·h
  VESSPA CP (changes in perception) AUC0-5/6 h: 0.06 ± 0.18 points·h
  VESSPA S (sedation) AUC0-5/6 h: 1.69 ± 1.43 points·h
  VESSPA SOC (pleasure and sociability) AUC0-5/6 h: 7.74 ± 3.00 points·h
  VESSPA-ACT (activity and energy) AUC0-5/6 h: 5.93 ± 2.65 points·h
  VESSPA-PS (psychotic symptoms) AUC0-5/6 h: 1.15 ± 2.02 points·h
